Assay results as given in patent publication US8883798B2, “Pyrimidine compounds inhibiting the formation of nitric oxide and prostaglandin E2, method of production thereof and use thereof” (Ustav Organicke Chemie a Biochemie Akademie Ved CR, V.V.I., priority 2011, dated 2014).

How the values were obtained:
[1] = system: production of prostaglandin E2 (PGE2); experiment: Production of prostaglandin E2 (PGE2) in cultures of mouse peritoneal cells stimulated with LPS (ELISA kit); type: cell-based, mice; conditions: Table 3A, substance 50 μmol·l^−1, 6 h
Procedure, shortened: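 C57BL/6 mouse peritoneal cells (3×10^6/mL) stimulated with LPS (10 ng/mL). PGE2 measured by ELISA.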

[2] = system: human peripheral blood lymphocytes; experiment: Chromosomal aberration test in vitro; type: cell-based; conditions: 0.1, 0.2 and 0.5 mg/ml; with and without metabolic activation
Method: The clastogenicity potential of compound no. 28 was determined using chromosomal aberration test in vitro. The test was carried out in human peripheral blood lymphocytes both with and without metabolic activation system in two separate assays.
Three concentrations were selected for the test: 0.1, 0.2 and 0.5 mg/ml of final culture. Cells were arrested at metaphase by colchicine, harvested and slides were stained. Metaphase cells were analyzed microscopically for the presence of chromosomal aberrations. A total of 200 well-spread metaphases were examined per concentration on coded slides. Concurrent positive (thiotepa, cyclophosphamide) and negative (2% DMSO) controls were included in each experiment. […].

[3] = rat, in vivo, po, 800 mg/kg
Method: (§1) 28. The plasma samples were taken in intervals during 48 hours. […] Plasma samples were prepared by centrifugation (3500 rpm, 10 min, 4° C.), transferred into appropriately labelled and sealed Eppendorf tubes and frozen at −20° C. until transportation to analyses. The plasma was split into two aliquots. All samples were transported in a sufficient amount of dry ice to the analytical laboratory.
(§2) The analysis was performed using HPLC/MS/MS method with the use of internal deuterated standard and precipitation separation method. The analytical method used 50 μl of plasma sample for each analysis. The method was validated for concentration as low as 10.0 ng of the compound in 1 ml of plasma. A weighted liner regression was evaluated over the concentration range from 10.0-10 000.0 ng of the compound in 1 ml of plasma. Spiked plasma samples were precipitated with the solution of internal standard. The sample supernatant was analyzed on HPL/MS/MS system TSQ-03.

[4] = Pilot toxic-kinetic study, single per-oral administration; conditions: female Wistar rats; single per-oral dose 800 mg/kg; plasma
Method: as §1, §2

chronic colitis in mice = experiment: Chronic murine colitis induced by dextran sulfate sodium; type: in vivo, mice (Balb/c); conditions: 10 mg/kg orally, daily for 15 days
Method: Chronic colitis was induced in mice (Balb/c) by dextran sulfate sodium (DSS), used as a 3% solution in drinking water. DSS treatment was applied intermittently on the three 5-day intervals, separated by the 9-day intervals (i.e. between the DSS cycles 1/2 and 2/3) during which the mice drunk normal water.
The test compounds were given orally, suspended in 0.5% methylcellulose. The dose was 10 mg/kg. The daily dosing started immediately after the second DSS interval and lasted to the end of the 3rd DSS interval, i.e. for the duration of 15 days. At this point, the animals were sacrificed and clinical signs of colitis were examined. Except of continuous monitoring the body weight, the following parameters were evaluated: a) colon length, b) disease activity index, and c) histological grade. Three compounds were included in this experiment: nos. 19, 51, and 28. 5-Aminosalycilic acid was used as a positive reference drug. The effects were compared to the group of mice receiving placebo (0.5% methylcellulose).

peritoneal cells of mice = experiment: Cell viability of mouse peritoneal cells (WST-1 kit); type: cell-based; conditions: Table 3A, substance 50 μmol·l^−1, 24 h
Procedure, shortened: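 C57BL/6 mouse peritoneal cells (1×10^6/mL) cultured 24 h with compounds at 50 μmol·l^−1. Viability read with WST-1 tetrazolium salt and expressed as percent of untreated control cells (100%).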

HUVEC = HUVEC cell proliferation (XTT assay); type: cell-based, human; conditions: 10 to 50 μmol/L, 8 hours
[5] = system: human umbilical vein endothelial cells (HUVEC); experiment: Tube formation assay of HUVEC on Matrigel (in vitro angiogenesis); type: cell-based; conditions: 8 h
Text: This so called “Tube Formation Assay” is a method based on the ability of endothelial cells to form capillary-like tubular structures when cultured on Matrigel™ (a gel of basement membrane extract—their natural substrate). The process of capillary-like tube formation includes endothelial cell attachment, migration, and differentiation into tubules. In this experiment, treatment with tested compounds started at the time of seeding HUVEC onto Matrigel and the extent of tubule development was observed after an 8 h time period. Disruption of tube formation was then assessed through observation of the tubular network and direct comparison to solvent-only controls. The quantitative and qualitative measurement of tubular network complexity was performed using web-based S.CORE imaging software and expressed by means of number of tubes, their total length, quality, number of branching points, etc. All these parameters were integrated into “tube formation index” which corresponds to the degree of complexity of tubular network. […] At a 10 μmol/L concentration, compound 23 reduced tube formation by >90%. […] Apoptosis in HUVECs (at ˜70% confluency) treated with or without varying concentrations (relevant for the tube formation assay) of tested substances was assessed by a combination of Annexin V and JC-1 staining. After 8 h of these treatments, cells were collected, and the cell population undergoing apoptosis was identified by double-parameter flow cytometry using annexin V and the vital dye propidium iodide (PI). Mitochondrial membrane potential in treated endothelial cells was measured using the lypophilic probe JC-1, which aggregates in healthy mitochondria and fluoresces red, but diffuses in the cytoplasm and fluoresces green upon mitochondrial damage. In both cases, quantification of apoptotic cells were conducted in BD FACSDiva software.

[6] = system: adjuvant arthritis in sewer rats; experiment: Adjuvant arthritis in female Lewis sewer rats (Freund's complete adjuvant); type: in vivo, sewer rats of the inbred strain Lewis; conditions: 50 mg/kg orally, Day 9 to Day 16; versus methylcellulose group

Row | SMILES | Production of prostaglandins in % of the controls [1] | Numerical and structural chromosome aberrations (clastogenicity) [2] | Toxic effect in animals [3] | Cmax = maximum concentration [4] [ng/mL] | Terminal elimination rate half-life [4] [h] | Clinical signs of chronic experimental colitis (chronic colitis in mice) | Colon length (inflammation in the gut) (chronic colitis in mice) | Effectiveness compared with 5-aminosalycilic acid (chronic colitis in mice) | Overall disease activity index (chronic colitis in mice) | Cell viability in % of the controls (peritoneal cells of mice) | HUVEC cell proliferation (HUVEC) | Effect on tube formation ([5]; 10 μmol/L) | Incomplete tube formation ([5]; 25 μmol/L) [%] | Capillary tube formation [5] | Severity of adjuvant arthritis (size of contralateral paws) [6]
1 | CCCCc1c(Cl)nc(N)nc1Cl [Substance 28] | 13.14 ± 0.13 % of the controls | did not induce an increase in numerical and structural chromosome aberrations | No apparent toxic effect was observed | 337.2 | 15.9 | significantly lowers the clinical signs of chronic experimental colitis | protection against the shortening of colon | slightly more effective than the reference drug | lower than in the placebo group | 100.42 ± 5.77 % of the controls |  |  |  |  | 
2 | CCCCc1c(Cl)nc(NC=O)nc1Cl [Substance 51] | 5.22 ± 2.66 % of the controls |  |  |  |  |  |  |  |  | 92.15 ± 9.90 % of the controls | did not influence HUVEC cell proliferation | only limited effect | ~6 | inhibited capillary tube formation in a dose dependent manner | distinctive (statistically significant) reduction of the severity of the illness
